Consider three substances from US20250302862A1, “SMALL RNA DRUG FOR INHIBITING ACTIVITY OF CANCER CELLS” (Institute of Basic Medical Sciences Chinese Academy of …, priority 2022, published 2025).

In one data set the test system is H460 cells. Description: Cell migration (scratch assay, Transwell). The data set is classed as cell-based, human. Conditions: 100 nmol/L, 48 h. As for the experimental part: Method 1: H460 cells with a cell density of more than 90% in 10 cm^2 dishes were plated in 12-well plates using serum-free medium according to the cell growth rate. After 12 h, 200 uL pipette tips were used to draw straight lines in the wells. The floating cells were washed away and transfection was performed, and the groups (three wells per group, two lines per well) were divided as follows: • blank control group: 200 uL of opti-MEM per well • negative control group (NC group) and experimental group: • A. 100 uL of opti-MEM and 2 uL of iMax were mixed well for 5 min • B. 100 uL of opti-MEM and 5 uL of small RNA (final concentration 100 nmol/L) were mixed well • C. solution A and solution B were mixed well and let stand for 15 min, and then was added to each well at a 200 uL system • Note: 100 uL of nuclease-free water was added to 2 nmol of small RNA dry powder for dissolution at a storage concentration of 20 umol/L
After 48 h, the supernatant was discarded and images were taken under a microscope.
Method 2: H460 cells with a cell density of more than 90% in 10 cm^2 dishes were digested and then resuspended with 1 mL of serum-free medium and counted. 100,000 cells (100 uL) were plated in the upper chamber, and complete medium with 10% FBS was added to the lower chamber of each Transwell (migration chamber). […]
(§1) 1) H460 cells with a cell density of more than 90% in 10 cm^2 dishes were digested and then resuspended with 1 mL of serum-free medium and counted. […]
as §1

The test system of data set [1] is primary lung cancer Kras^LSL-G12Dp53^fl/fl (KP) mouse model. Put plainly: Tumor burden of mice with primary lung cancer (HE lung sections). Format: in vivo. Conditions: 10 nmol daily by gavage for one month, sphingosine(d18:1) delivery system, HE-stained left lung section, vs NC group. An excerpt:
The mouse model of primary lung cancer was Kras^LSL-G12Dp53^fl/fl (KP).
Mice were weighed and assigned to the negative control group (NC group) and HQi-sRNA-2 group randomly. The NC group was the negative control, in which a sphingosine(d18:1)-NC-sRNA herbal medicine delivery system was constructed from NC-sRNA. The HQi-sRNA-2 group was the experimental group, in which a sphingosine(d18:1)-HQi-sRNA-2 herbal medicine delivery system was constructed from HQi-sRNA-2.
The herbal medicine delivery system was constructed by heating and mixing 10 nmol of sRNA, 100 ug of sphingosine(d18:1) and 300 ul of sterile enzyme-free water in a water bath at 90° C. for 15 minutes.
Each mouse with a uniform body weight was dosed by gavage. Each mouse was given 10 nmol of HQi-sRNA-2 mimic daily by gavage for one month.
The lungs of mice were collected to prepare pathological sections. The left lung was collected and sliced at the largest surface for every mouse, and stained with HE. The area of tumor in the whole pathological section was counted, the tumor burden was calculated, and statistical analysis was performed.
Mice were weighed and assigned to the negative control group (NC group), MDM-sRNA-39 group and MDM-sRNA-163 group randomly. The NC group was the negative control, in which a sphingosine(d18:1)-NC-sRNA herbal medicine delivery system was constructed from NC-sRNA. The MDM-sRNA-39 group was an experimental group, in which a sphingosine(d18:1)-MDM-sRNA-39 herbal medicine delivery system was constructed from MDM-sRNA-39. The MDM-sRNA-163 group was an experimental group, in which a sphingosine(d18:1)-MDM-sRNA-163 herbal medicine delivery system was constructed from MDM-sRNA-163.

Take “HQi-sRNA-2: small RNA derived from Scutellaria baicalensis, sequence AUGGUUCGAUUCCGGAGAGGG (listed as RNA, chemistry not given here)”: the cell migration result with H460 cells is “inhibits”. In addition, in data set [1], the “tumor burden of mice with primary lung cancer” value (from here on “tumor burden of mice”) is “significantly reduced”.
As for “MDM-sRNA-39: small RNA derived from Maytenus hookeri, sequence GGGAUUGUAGUUCAAUUGGUCAGAGCACC (listed as RNA, chemistry not given here)”, in the data set on H460 cells, the cell migration result is reported as “inhibits”. For the same substance, the “tumor burden of mice” value in data set [1] is reported as “significantly reduced”.
On to “MDM-sRNA-163: small RNA derived from Maytenus hookeri, sequence UGACUCUAGUCCGACUUUGUGAAAUGACU (listed as RNA, chemistry not given here)”, for which the cell migration entry with H460 cells was “inhibits”. The “tumor burden of mice” value in data set [1] is “significantly reduced”.
